Assay results taken from ChEMBL document CHEMBL5230154, “Chemical probe of AHL modulators on quorum sensing in Gram-Negative Bacteria and as antiproliferative agents: A review” (Eur J Med Chem, 2021).

How the values were obtained:
Pseudomonas aeruginosa [1] = experiment: Inhibition of quorum sensing system in Pseudomonas aeruginosa MH602 PlasB-gfp(ASV) assessed as inhibition of green fluorescent protein production at 62.5 to 250 uM for 20 hrs by fluorescence assay; settings: dose 62.5-250 µM
Pseudomonas aeruginosa [2] = experiment: Inhibition of quorum sensing system in Pseudomonas aeruginosa MH602 expressing PlasB::gfp assessed as inhibition of GFP fluorescence expression at 250 uM incubated for 15 hrs by fluorescence microplate reader analysis
[3] = Inhibition of Escherichia coli DH5alpha LasR co-expressing LasR beta-galactosidase reporter assessed as inhibition of beta-galactosidase activity incubated for 2 hrs by spectrophotometric assay
Escherichia coli = experiment: Inhibition of Escherichia coli DH5alpha LasR co-expressing LasR beta-galactosidase reporter assessed as inhibition of beta-galactosidase activity at 100 uM incubated for 2 hrs by spectrophotometric assay
[4] = molecular target: T1, Transcriptional activator protein LasR (Pseudomonas aeruginosa (strain ATCC 15692 / PAO1 / 1C / PRS 101 / LMG12228), UniProt P25084); experiment: Antagonist activity against LasR-mediated quorum sensing system in Pseudomonas aeruginosa PAO1 by spectrophotometric assay
T1 sequence (P25084 whole entry): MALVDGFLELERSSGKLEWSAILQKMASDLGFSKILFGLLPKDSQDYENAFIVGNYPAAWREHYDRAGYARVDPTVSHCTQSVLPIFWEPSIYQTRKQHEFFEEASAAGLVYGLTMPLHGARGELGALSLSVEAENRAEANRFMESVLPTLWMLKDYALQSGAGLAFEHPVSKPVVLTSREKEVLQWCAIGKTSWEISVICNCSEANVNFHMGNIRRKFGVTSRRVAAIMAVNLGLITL

Pseudomonas aeruginosa [5] = experiment: Inhibition of Pseudomonas aeruginosa MH602 harboring PlasB::gfp(ASV) reporter assessed as decrease in GFP expression at 250 uM incubated for 22 hrs by fluorescence microplate reader analysis
[6] = Antagonist activity against quorum sensing system in Vibrio harveyi BB120 assessed as inhibition of […] incubated for 5 hrs by bioluminescence assay
Pseudomonas aeruginosa [7] = experiment: Inhibition of quorum sensing system in Pseudomonas aeruginosa MH602 PlasB-gfp(ASV) assessed as inhibition of green fluorescent protein production at 250 uM for 20 hrs by fluorescence assay
Pseudomonas aeruginosa [8] = experiment: Inhibition of quorum sensing system in Pseudomonas aeruginosa MH602 PlasB-gfp(ASV) assessed as inhibition of green fluorescent protein production at 125 uM for 20 hrs by fluorescence assay
Pseudomonas aeruginosa [9] = experiment: Inhibition of quorum sensing system in Pseudomonas aeruginosa MH602 PlasB-gfp(ASV) assessed as inhibition of green fluorescent protein production at 62.5 uM for 20 hrs by fluorescence assay
[10] = Agonist activity against RhlR in Escherichia coli expressing JLD271/pJN105R2/pSC11-rhlI using CPRG as substrate by spectrophotometric assay
[11] = Inhibition of quorum sensing system in Chromobacterium violaceum CV026 assessed as inhibition of violacein production incubated for 16 to 18 hrs by spectrophotometric assay
[12] = Inhibition of quorum sensing system in Pseudomonas aeruginosa PAO1 assessed as decrease in lasI expression at 15 uM incubated for 12 hrs by real-time fluorescent quantitative PCR analysis
[13] = Inhibition of quorum sensing system in Pseudomonas aeruginosa PAO1 assessed as inhibition of pyocyanin production at 15 uM incubated for 12 hrs by spectrophotometric assay
[14] = Inhibition of quorum sensing system in Pseudomonas aeruginosa PAO1 assessed as inhibition of rhamnolipid production at 15 uM incubated for 12 hrs by spectrophotometric assay
Pseudomonas aeruginosa [15] = experiment: Inhibition of biofilm formation in Pseudomonas aeruginosa PAO1 incubated for 12 hrs by crystal violet staining based analysis; format: functional

O=C(Cn1cc(-c2ccc(Br)cc2)nn1)Nc1nc2ccccc2[nH]1
inhibition (Pseudomonas aeruginosa [1]): 45.7%

CCCCN1CC(Cl)=C(Cl)C1=O
inhibition (Pseudomonas aeruginosa [2]): 71.4%

O=C(NCc1ccccc1)c1ccc(N2CC(Cl)=C(Cl)C2=O)cc1
inhibition (Pseudomonas aeruginosa [2]): 30%

O=C(Cn1cc(-c2cc(F)cc(F)c2)nn1)N[C@H]1CCOC1=O
IC50 [3]: 13.7 µM | inhibition (Escherichia coli): 71%

CCCCNC(=O)c1ccc(N2CC(Cl)=C(Cl)C2=O)cc1
inhibition (Pseudomonas aeruginosa [2]): 30%

O=C(CNc1ccc(C(=O)/C=C/c2ccccc2Cl)cc1)N[C@H]1CCOC1=O
IC50 [4]: 67.8 µM

Cc1ccc2c(c1)C(=O)C(=O)NCc1cnnn1CC(=O)Nc1ccc(C)cc1C(=O)C(=O)NCc1cnnn1CC(=O)N2
inhibition (Pseudomonas aeruginosa [5]): 58.6%

CCOC(=O)CC(=O)c1ccc(F)cc1
IC50 [6]: 23 µM

C=CCN1CC(Cl)=C(Cl)C1=O
inhibition (Pseudomonas aeruginosa [2]): 76.4%

O=C(Cn1cc(C2CCCCC2)nn1)N[C@H]1CCOC1=O
IC50 [3]: 12.4 µM | inhibition (Escherichia coli): 72%

CCCc1cn(CC(=O)Nc2nc3ccccc3[nH]2)nn1
inhibition (Pseudomonas aeruginosa [7]): 42% | inhibition (Pseudomonas aeruginosa [8]): 34% | inhibition (Pseudomonas aeruginosa [9]): 25%

CCCCCC(=O)N[C@H]1CCOC1=O
EC50 [10]: 10.8 µM

Cc1ccc(-c2cn(CC(=O)Nc3nc4ccccc4[nH]3)nn2)cc1
inhibition (Pseudomonas aeruginosa [1]): 32%

CCOC(=O)CC(=O)c1ccc(Cl)cc1
IC50 [6]: 53 µM

COc1ccc(-c2cn(CC(=O)Nc3nc4ccccc4[nH]3)nn2)cc1
inhibition (Pseudomonas aeruginosa [7]): 20% | inhibition (Pseudomonas aeruginosa [8]): 5.16%

O=C(Nc1ccc(S(=O)(=O)N[C@H]2CCOC2=O)cc1)c1cccc(Cl)c1
IC50 [11]: 8.56 µM

CCOC(=O)CC(=O)c1ccccc1
IC50 [6]: 76 µM

CCOC(=O)CC(=O)c1cccc([N+](=O)[O-])c1
IC50 [6]: 71 µM

O=C(Nc1ccc(S(=O)(=O)N[C@H]2CCOC2=O)cc1)c1ccccc1F
IC50 [11]: 1.64 µM

O=C(CNc1ccc(C(=O)/C=C/c2ccc(Cl)cc2)cc1)N[C@H]1CCOC1=O
IC50 [4]: 46.8 µM

CCCCCCNC(=O)c1ccc(N2CC(Cl)=C(Cl)C2=O)cc1
inhibition (Pseudomonas aeruginosa [2]): 30%

CCCCc1cn(CC(=O)N[C@H]2CCOC2=O)nn1
IC50 [3]: 17.6 µM | inhibition (Escherichia coli): 75%

O=C(Cn1cc(-c2ccccc2)nn1)N[C@H]1CCOC1=O
IC50 [3]: 15.9 µM | inhibition (Escherichia coli): 89.6%

O=C(CNc1ccc(C(=O)/C=C/c2ccccc2Br)cc1)N[C@H]1CCOC1=O
IC50 [4]: 37.6 µM

O=C(CNc1ccc(C(=O)/C=C/c2ccc(Br)cc2F)cc1)N[C@H]1CCOC1=O
IC50 [4]: 26.5 µM

O=C(Nc1ccc(S(=O)(=O)N[C@H]2CCOC2=O)cc1)c1ccccc1Cl
IC50 [11]: 1.66 µM

O=C(CSc1nc2ccccc2s1)N[C@H]1CCOC1=O
inhibition [12]: 50.5% | inhibition [13]: 14.2% | inhibition [14]: 20.5% | inhibition (INH) (Pseudomonas aeruginosa [15]): 28.6%

O=C(Nc1ccc(S(=O)(=O)N[C@H]2CCOC2=O)cc1)c1cccc(F)c1
IC50 [11]: 7.79 µM

CCOC(=O)CC(=O)c1ccc([N+](=O)[O-])cc1
IC50 [6]: 53 µM

CCOC(=O)CC(=O)c1ccc(Br)cc1
IC50 [6]: 81 µM

CCCCC(=O)Nc1ccc(S(=O)(=O)N[C@H]2CCOC2=O)cc1
IC50 [11]: 49.5 µM

CCOC(=O)CC(=O)c1cccc2ccccc12
IC50 [6]: 76 µM

O=C(CCSc1nc2ccccc2s1)N[C@H]1CCOC1=O
inhibition [12]: 32.9% | inhibition [13]: 15.1% | inhibition [14]: 22.2% | inhibition (INH) (Pseudomonas aeruginosa [15]): 38%

O=C(Cn1cc(CC2CCCCC2)nn1)N[C@H]1CCOC1=O
inhibition (Escherichia coli): 14%

O=C(Cn1cc(C2CCCC2)nn1)N[C@H]1CCOC1=O
IC50 [3]: 16.3 µM | inhibition (Escherichia coli): 70%

CCCCCc1cn(CC(=O)N[C@H]2CCOC2=O)nn1
IC50 [3]: 3.2 µM | inhibition (Escherichia coli): 55%

O=C(Cn1cc(C2CC2)nn1)N[C@H]1CCOC1=O
inhibition (Escherichia coli): 52%

O=C(Cn1cc(-c2ccc(O)cc2)nn1)Nc1nc2ccccc2[nH]1
inhibition (Pseudomonas aeruginosa [1]): 34%

Cc1ccc(-n2cc(CCC(=O)N[C@H]3CCOC3=O)nn2)cc1
IC50 [3]: 10.9 µM | inhibition (Escherichia coli): 72%

CCOC(=O)CC(=O)c1cccc(C)c1
IC50 [6]: 56 µM

O=C(CNc1ccc(C(=O)/C=C/c2ccc(F)cc2)cc1)N[C@H]1CCOC1=O
IC50 [4]: 46.8 µM

CCCCCc1cn(CC(=O)Nc2nc3ccccc3[nH]2)nn1
inhibition (Pseudomonas aeruginosa [7]): 42% | inhibition (Pseudomonas aeruginosa [8]): 34% | inhibition (Pseudomonas aeruginosa [9]): 25%

O=C(Nc1ccc(S(=O)(=O)N[C@H]2CCOC2=O)cc1)c1ccccc1C(F)(F)F
IC50 [11]: 4.91 µM

COc1cccc(/C=C/C(=O)c2ccc(NCC(=O)N[C@H]3CCOC3=O)cc2)c1
IC50 [4]: 56.5 µM

CCCCCCCc1cn(CC(=O)Nc2nc3ccccc3[nH]2)nn1
inhibition (Pseudomonas aeruginosa [7]): 42% | inhibition (Pseudomonas aeruginosa [8]): 34% | inhibition (Pseudomonas aeruginosa [9]): 25%

O=C(Nc1ccc(S(=O)(=O)N[C@H]2CCOC2=O)cc1)c1ccc(F)cc1
IC50 [11]: 14.7 µM

O=C(Cn1cc(-c2ccc(F)cc2)nn1)Nc1nc2ccccc2[nH]1
inhibition (Pseudomonas aeruginosa [1]): 49%

O=C(Cn1cc(-c2ccc([N+](=O)[O-])cc2)nn1)Nc1nc2ccccc2[nH]1
inhibition (Pseudomonas aeruginosa [1]): 63.7%

CCC(C)CC(=O)N[C@H]1CCOC1=O (some centres undefined)
EC50 [10]: 7.77 µM

COc1ccc(-n2cc(CCC(=O)N[C@H]3CCOC3=O)nn2)cc1
IC50 [3]: 16.5 µM | inhibition (Escherichia coli): 75%

O=C(CCC1CC1)N[C@H]1CCOC1=O
EC50 [10]: 2.76 µM

O=C(N[C@H]1CCOC1=O)c1ccc(-n2cc(CSc3ccccc3)nn2)cc1
IC50 [3]: 2.64 µM | inhibition (Escherichia coli): 62%

O=C(Cn1cc(-c2ccc(C(F)(F)F)cc2)nn1)Nc1nc2ccccc2[nH]1
inhibition (Pseudomonas aeruginosa [1]): 57.5%

O=C(CNc1ccc(C(=O)/C=C/c2ccccc2)cc1)N[C@H]1CCOC1=O
IC50 [4]: 62.5 µM

O=C1Cn2nncc2CNC(=O)C(=O)c2cc(F)ccc2NC(=O)Cn2nncc2CNC(=O)C(=O)c2cc(F)ccc2N1
inhibition (Pseudomonas aeruginosa [5]): 46%

O=C(CNc1ccc(C(=O)/C=C/c2ccc(Cl)c(Cl)c2)cc1)N[C@H]1CCOC1=O
IC50 [4]: 46.8 µM

CCCCCCN1CC(Cl)=C(Cl)C1=O
inhibition (Pseudomonas aeruginosa [2]): 68%

CCOC(=O)CC(=O)c1ccc(I)cc1
IC50 [6]: 39 µM

O=C(Cn1cc(-c2cccc([N+](=O)[O-])c2)nn1)Nc1nc2ccccc2[nH]1
inhibition (Pseudomonas aeruginosa [1]): 28.2%

O=C(CNc1ccc(C(=O)/C=C/c2ccc(Br)cc2)cc1)N[C@H]1CCOC1=O
IC50 [4]: 46.8 µM

CC(C)CCC(=O)N[C@H]1CCOC1=O
EC50 [10]: 4.89 µM

C/C=C/CCC(=O)N[C@H]1CCOC1=O
EC50 [10]: 6.93 µM

CCOC(=O)CC(=O)c1cccc(OC)c1
IC50 [6]: 41 µM

Cc1ccc2c(c1)C(=O)C(=O)N2C(=O)CCl
inhibition (Pseudomonas aeruginosa [5]): 57.4%

O=C(CNc1ccc(C(=O)/C=C/c2cc(Cl)cc(Cl)c2)cc1)N[C@H]1CCOC1=O
IC50 [4]: 46.8 µM

Cc1cc2nc(NC(=O)Cn3cc(-c4ccc(C(F)(F)F)cc4)nn3)[nH]c2cc1C
inhibition (Pseudomonas aeruginosa [1]): 36.1%

Nc1cccc(-n2cc(CCC(=O)N[C@H]3CCOC3=O)nn2)c1
IC50 [3]: 4.03 µM

O=C(Nc1ccc(S(=O)(=O)N[C@H]2CCOC2=O)cc1)c1ccccc1
IC50 [11]: 17.2 µM

O=C(Nc1ccc(S(=O)(=O)N[C@H]2CCOC2=O)cc1)c1ccc(Cl)cc1
IC50 [11]: 15.9 µM

CCOC(=O)CC(=O)c1ccc(OC)cc1
IC50 [6]: 36 µM

CCOC(=O)CC(=O)c1ccc(C)cc1
IC50 [6]: 96 µM

CCCCCC(=O)Nc1ccc(S(=O)(=O)N[C@H]2CCOC2=O)cc1
IC50 [11]: 29 µM
